# Results: the supplement of paper PMC8671470
# What was measured:
# Assay in all cases: cell viability (% survival relative to DMSO control, bortezomib = 0%); higher = less cytotoxic
# Conditions in all cases: 72 h
# NOMO-1 = test system: NOMO-1
# Summary of the method: (§1)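 Reported values are percent survival from duplicate wells, averaged. Fifteen myeloid leukaemia cell lines were treated in 384-well plates with compounds at 1, 10, 100, 1000 or 10000 nM for 72 h at 37 °C in 5% CO2. Signals from CellTiter-Glo luminescence were scaled with vehicle as 100% and a 10 µM positive control as 0%.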
# KCL-22 = test system: KCL-22
# Summary of the method: as §1
# LAMA-84 = test system: LAMA-84
# Summary of the method: as §1
# HEL = test system: HEL
# Summary of the method: as §1
Structure (SMILES),cell viability (NOMO-1; 1 nM),cell viability (NOMO-1; 10 nM),cell viability (NOMO-1; 100 nM),cell viability (NOMO-1; 1000 nM),cell viability (NOMO-1; 10000 nM),cell viability (KCL-22; 1 nM),cell viability (KCL-22; 10 nM),cell viability (KCL-22; 100 nM),cell viability (KCL-22; 1000 nM),cell viability (KCL-22; 10000 nM),cell viability (LAMA-84; 1 nM),cell viability (LAMA-84; 10 nM),cell viability (LAMA-84; 100 nM),cell viability (LAMA-84; 1000 nM),cell viability (LAMA-84; 10000 nM),cell viability (HEL; 1 nM),cell viability (HEL; 10 nM),cell viability (HEL; 100 nM),cell viability (HEL; 1000 nM),cell viability (HEL; 10000 nM)
Cc1coc2c1C(=O)C(=O)c1c-2ccc2c(C)cccc12 [Tanshinone I],111%,103%,97.3%,98.6%,91.5%,125%,100%,108%,111%,59.5%,104%,105%,101%,108%,95.4%,121%,97.3%,107%,106%,92.7%
O=C(O)C(S)=Cc1c[nH]c2ccc(F)cc12,103%,97.9%,107%,116%,94.8%,111%,94.6%,102%,112%,101%,96.9%,98.2%,92.6%,102%,102%,102%,103%,95.4%,94%,101%
CC12CCC(O)CC1CCC1C2CCC2(C)C(C3=CC(=O)OC3)CCC12O (stereo not given) [Digitoxigenin],110%,96%,109%,11.3%,-1.17%,94.5%,102%,98.9%,3.66%,-0.896%,109%,105%,84.6%,6.05%,0.855%,102%,99.1%,103%,1.26%,-1.18%
Sc1ncnc2nc[nH]c12 [6-mercaptopurine],108%,86.7%,88.6%,41.5%,30.5%,92.6%,89.7%,105%,52%,8.81%,102%,86.6%,87.9%,55.3%,12.6%,96.5%,98.2%,95.6%,70.6%,7.42%
C1CCc2nnc(C34CC5CC(CC(C5)C3)C4)n2CC1 [MERCK-544],102%,95.8%,89.3%,97.4%,109%,99.2%,106%,95.8%,106%,116%,102%,94.5%,91.9%,92.9%,101%,104%,106%,95.2%,92.4%,132%
Cl.OC[C@H]1NC[C@@H](O)[C@@H](O)[C@@H]1O [1-Deoxymannojirimycin hydrochloride],103%,89.9%,104%,99.3%,92.1%,95.9%,86.8%,96.4%,111%,105%,99.5%,93.4%,102%,94%,95.6%,102%,83.2%,112%,119%,86.1%
